According to patent publication US20200022964A1, “COMPOSITIONS AND METHODS FOR TREATMENT OF INFLAMMATORY AUTOIMMUNE DISEASES” (New York University, priority 2018, published 2020):

How the values were obtained:
cPLA2 [1] = biological target: T1, cPLA2 (Mus musculus, UniProt P47713); assay: Western blot of TNF activated phosphorylation of cPLA2 on Ser-505 in BMDMs; format: cell-based, mice; design: endogenous in cells; host or cells: mouse bone marrow derived macrophages (BMDMs); conditions: TNF-α 10 ng/mL; FFD 10 μM
T1 sequence (P47713 1-748): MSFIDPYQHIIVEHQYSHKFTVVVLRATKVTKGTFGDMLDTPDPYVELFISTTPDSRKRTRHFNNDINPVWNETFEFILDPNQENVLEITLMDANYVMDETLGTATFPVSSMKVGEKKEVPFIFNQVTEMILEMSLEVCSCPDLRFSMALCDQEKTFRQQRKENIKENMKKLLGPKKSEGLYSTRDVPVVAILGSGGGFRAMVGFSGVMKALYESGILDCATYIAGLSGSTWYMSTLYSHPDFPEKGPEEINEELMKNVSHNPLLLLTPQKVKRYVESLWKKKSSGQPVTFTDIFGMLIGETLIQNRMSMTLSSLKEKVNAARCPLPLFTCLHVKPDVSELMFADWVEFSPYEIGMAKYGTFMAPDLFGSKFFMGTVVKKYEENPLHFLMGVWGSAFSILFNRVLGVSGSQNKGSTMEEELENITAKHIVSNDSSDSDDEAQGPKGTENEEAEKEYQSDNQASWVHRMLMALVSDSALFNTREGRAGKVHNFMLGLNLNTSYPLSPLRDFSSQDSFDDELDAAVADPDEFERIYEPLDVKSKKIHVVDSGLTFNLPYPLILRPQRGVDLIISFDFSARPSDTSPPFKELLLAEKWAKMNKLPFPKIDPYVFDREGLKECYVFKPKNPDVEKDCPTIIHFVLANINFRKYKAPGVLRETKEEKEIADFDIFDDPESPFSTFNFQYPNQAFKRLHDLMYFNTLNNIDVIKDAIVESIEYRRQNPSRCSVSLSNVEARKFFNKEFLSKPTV
Protocol: Primary bone marrow derived macrophages (BMDMs) extraction. BMDMs were isolated from C57BL/6 and TNF-tg mice. After mice were sacrificed by cervical dislocation, the tibia and femur were isolated and both ends of the bones were cut to open the medullary cavity. Bone marrow cells were collected by centrifuge at 13000 g for 90 seconds and seeded in 6-well plates. Prior to their use in experiments, M-CSF (10 ng/ml, 576406, Biolegend) was added for 6 days to the BMDM culture medium.
Western blot. After protein samples were prepared, samples were separated by SDS-PAGE and transferred to a nitrocellulose (NC) membrane (162-0115, BIO-RAD) using a wet transfer system. Membrane was blocked in 5% (w/v) non-fat milk in TBST for half an hour at room temperature, followed by incubation with appropriate primary antibody overnight at 4° C. After washing, appropriate secondary antibody was added for 1 hour at room temperature. The bands on the membrane were developed by chemiluminescent (ECL) substrate and visualized by GelDoc system.

[2] = test system: TNF-α-activated NF-κB reporter gene; assay: NF-κB luciferase reporter in control and cPLA2 knockout Raw264.7 cells; format: cell-based
Protocol: Screening FDA approved drugs in vitro. NF-κB-bla THP-1 cell line (K1662, Invitrogen) was cultured in 96-well plates and FDA approved drugs (10 μM, L1300, Selleckchem) were added and cultured overnight. Next day, cells were incubated with TNF-α (10 ng/ml, PHC3015, Invitrogen) for 6 hours and LiveBLAzer™ FRET-B/G Loading Kit with CCF2-AM (K1095, Invitrogen) was used to detect the β-lactamase activity via SpectraMax i3x system (5025027A Molecular Devices) with excitation wavelength at 409 nm and emission wavelengths at 520 nm or 470 nm. This process was performed in triplicate. Subsequently, the drugs from first screening that could inhibit TNF-α induced NF-κB activity underwent further screening by NF-κB luciferase assay. After transfection with NF-κB luciferase reporter gene and Renilla plasmids for 8 hours, cells were treated with drugs (10 μM) overnight, followed by TNF-α (10 ng/ml) stimulation for 6 hours, then bioluminescence was measured by Dual-Luciferase® Reporter Assay kit (E1910, Promega). The data were analyzed by Graphpad Prism software (GraphPad Software, San Diego, Calif.).
Knock out of cPAL2 by CRISPR-Cas9. Knockout cells were generated in accordance with a previously published protocol. gRNA was inserted into the lentiCRISPR v2 vector. Packaging the inserted vector into lentivirus was completed by co-transfecting the lentiCRISPR v2, VSVG and ΔR6.7 in 293T cells. After packaging, we transfected the virus into RAW264.7 cells over 8 hours. Puromycin (2 μg/ml) was used to select the stably transfected RAW264.7 cells

NF-κB p65 = conditions: TNF-α 10 ng/mL; FFD 10 μM, TFD 1 μM
cPLA2 [3] = biological target: cPLA2 (Homo sapiens, UniProt P47712, S505A); conditions: 293 T cells transfected with point mutant plasmid
Protocol: (§1) DARTS assay. Drug affinity responsive target stability (DARTS) assay was performed based on previously reported methods^4. In brief, cell lysate was extracted by M-PER™ Mammalian Protein Extraction Reagent (78501, Thermo Fisher), briefly centrifuged, and mixed with drugs or DMSO for 1 hour on a rotator. Pronase (P5147, Sigma-Aldrich) was added in the mixture for 15 minutes at room temperature. Digestion was stopped by 10 minute incubation with protease inhibitor cocktail on ice. Samples were boiled in SDS loading buffer for SDS-PAGE and Western blot.
(§2) Site-directed mutagenesis.
(§3) Construction of plasmids. The construction of cPLA2 mutant plasmids was based on serial C-terminal and N-terminal deletion of the amino acid sequences associated with functional structure. Each plasmid carried a flag tag. The constructions were: full length cPLA2 (1-750), cPLA2 (126-750), cPLA2 (406-750), cPLA2 (1-479), and cPLA2 (1-144).

cPLA2 [4] = conditions: series of protease to cell lysate ratios
Protocol: as §1, §2, §3

Sequence of cPLA2 (Homo sapiens, UniProt P47712, S505A) (P47712 whole entry S505A): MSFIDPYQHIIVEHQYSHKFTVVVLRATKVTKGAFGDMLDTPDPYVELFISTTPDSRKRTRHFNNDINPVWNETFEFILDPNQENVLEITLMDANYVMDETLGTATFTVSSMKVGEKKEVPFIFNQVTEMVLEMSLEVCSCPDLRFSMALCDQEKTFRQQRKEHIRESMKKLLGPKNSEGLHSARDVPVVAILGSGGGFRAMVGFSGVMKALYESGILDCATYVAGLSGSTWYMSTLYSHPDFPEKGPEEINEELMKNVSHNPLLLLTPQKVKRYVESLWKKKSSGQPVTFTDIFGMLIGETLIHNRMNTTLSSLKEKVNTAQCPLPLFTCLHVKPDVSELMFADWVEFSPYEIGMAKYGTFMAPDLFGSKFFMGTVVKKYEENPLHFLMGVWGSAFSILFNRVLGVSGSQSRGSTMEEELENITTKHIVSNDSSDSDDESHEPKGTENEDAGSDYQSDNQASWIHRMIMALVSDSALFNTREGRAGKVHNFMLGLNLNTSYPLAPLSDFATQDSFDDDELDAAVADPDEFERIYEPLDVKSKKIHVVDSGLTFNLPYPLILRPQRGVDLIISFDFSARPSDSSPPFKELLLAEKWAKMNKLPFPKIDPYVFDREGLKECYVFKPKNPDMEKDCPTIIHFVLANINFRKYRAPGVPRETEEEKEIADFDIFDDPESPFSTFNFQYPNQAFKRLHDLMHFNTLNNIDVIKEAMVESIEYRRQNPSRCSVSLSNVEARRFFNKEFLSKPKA

phosphorylation of cPLA2 on Ser-505 (cPLA2 [1]): abolished
TNF-α-induced nuclear translocation and DNA-binding activity of p65 (NF-κB p65): inhibited
DARTS protective effect on Ser-505 to Ala point mutant of cPLA2 (cPLA2 [3]): lost its protective effect
Compound: CC(C)(C(=O)O)c1ccc(C(O)CCCN2CCC(C(O)(c3ccccc3)c3ccccc3)CC2)cc1 (stereo not shown) [fexofenadine]
inhibition of TNF-α-activated NF-κB reporter gene in cPLA2 knockout cells ([2]; cPLA2 knockout cells): lost its inhibition
anti-TNF/NF-κB activity in cPLA2 knockout cells transfected with cPLA2 S505A ([2]; point mutant Ser-505-Ala): could not rescue
anti-TNF/NF-κB activity in cPLA2 knockout cells transfected with a cPLA2 expression plasmid ([2]; re-established expression of cPLA2): reinstated
protection of cPLA2 from protease (DARTS, Western blot) (cPLA2 [4]): protected
